# Assay results reported in US20240316053A1, “USE OF FOLATE DERIVATIVE IN PREPARATION OF DRUG FOR TREATING CONTACT LENS DISCOMFORT AND DRY EYE” (LIANYUNGANG JINKANG HEXIN PHARMACEUTICAL CO., LTD., priority 2021, published 2024).
# Columns and labels:
# [1] = test system: mice with chronic dry eye; experiment: Corneal fluorescein staining in mice with chronic dry eye; format: in vivo; settings: 10th day after treatment
# Description: It can be seen that a suitable animal model of dry eye is very important, and it is impossible to show the true state of dry eye or contact lens discomfort only by destroying the lacrimal gland or modeling with hypertonic saline. The mouse model of dry eye constructed under specific environmental conditions is closest to the real situation. 120 female BALB/c mice aged 8-12 weeks were placed in an isolated and sealed cage with an opening on the top. Air dried through anhydrous CaSO4 was pumped into the cage by an air pump, where the air humidity RH=19.5%±5%, the flow rate was 15 L/min, and the temperature was 21-23° C. The mice in the dry and windy environment were taken out on the 5th, 15th and 30th day respectively. The production of tears was measured by phenol red thread test, and compared with that of the mice raised in standard cages in normal environment. Meanwhile, the cornea of the mice were stained with fluorescein, and the punctate staining was recorded in the cornea.
# (§1) The experiment was divided into 3 groups. 20 mice with chronic dry eye in Example 2 were divided into a 5-methylterahydrofolic acid group (group A, n=10), and an arginine group (group B, n=10). 4 normal mice were taken as the control group. Each eye of the mice in group A was dripped with 5 μL of 5-methylterahydrofolic acid eye drop every day, each eye of the mice in group B was dripped with 5 μL of 0.5% arginine eye drop every day, and each eye of the mice in group C was dripped with 5 μL of a phosphate buffer every day. Tears were collected on the 3rd, 5th, 7th and 10th day after treatment, and the secretion of tears was detected. On the 10th day after treatment, the cornea of the mice in each group were stained with fluorescein.
# The experiment was divided into 4 groups. […] Tears were collected on the 3rd, 5th, 7th and 10th day after treatment, and the secretion of tears was detected. […]
# IL-17 [2] = experiment: Inflammatory factors on ocular surface of mice with chronic dry eye (ELISA); format: in vivo; settings: Example 3, 0.5% eye drop, cornea, conjunctiva and draining lymph node, FIG. 6
# Procedure: as §1
# After treatment, the animals were euthanized, and the eye tissues such as cornea, lacrimal gland and meibomian gland were taken out and washed in PBS. The cornea, conjunctiva and draining lymph node were collected and stored in cold sterile PBS at −80° C. The samples were homogenized and centrifuged on ice. The levels of […], IL-17 and IL-6 in the supernatant were determined by ELISA kit (Raybiotech).
# IL-17 [3] = experiment: IL-17 content in tears of contact lens wearers (ELISA); format: in vivo, human; settings: symptomatic wearers, oral 5 mg/tablet daily, tears collected after 6 hrs of lens wear, FIG. 1
# Procedure: (§2) The symptomatic contact lens wearers were divided into 2 groups, that is, group A (n=4) and group B (n=4). The asymptomatic contact lens wearers were assigned to group C The participants in each group didn't wear contact lenses for 24 hours, and then the tears were collected. Dietary supplements containing 5 mg calcium salt of 6S-5-methylterahydrofolic acid/tablet were orally taken by the participants in group A every day. After 3 days, the participants in each group began to wear contact lenses, and the tears were collected after 6 hrs. The contents of IL-2, IL-6, IL-17, and TNF-α were detected (ELISA method). The participants in each group were followed up to determine the degree of discomfort of wearing contact lenses.
# TNF-α = experiment: Semi-quantitative RT-PCR in ipsilateral trigeminal ganglion of mice with chronic dry eye; format: in vivo; settings: Example 3, 0.5% eye drop, FIG. 7
# Procedure: as §1
# (§3) The ipsilateral trigeminal ganglion and trigeminal trunk of the eye of the mice were dissected quickly on ice, immediately frozen with liquid nitrogen, and stored at −80° C. RNA was extracted from ipsilateral trigeminal ganglion and trigeminal trunk by using NucleoSpin RNA purification II kit (NucleoSpin RNAS, Germany), and PCR amplification was carried out with mouse-specific cDNAs for matrix metalloproteinases MMP-9, MMP-2, and TNF-α. For each primer, the reaction was stopped after 24, 28, 32, 36, or 40 cycles, so as to ensure that the PCR products were within the linear range of the amplification curve, and semi-quantitative RT-PCR for the expression of related genes was realized.
# MMP-2 = experiment: as above; format: in vivo; settings: Example 3, 0.5% eye drop, FIG. 7
# Procedure: as §1, §3
# MMP-9 = experiment: as above; format: in vivo; settings: Example 3, 0.5% eye drop, FIG. 7
# Procedure: as §1, §3
# [4] = test system: symptomatic contact lens wearers; experiment: Follow-up of degree of discomfort of wearing contact lenses; format: in vivo, human; settings: group A (n=4), oral 5 mg calcium salt of 6S-5-methylterahydrofolic acid/tablet every day, contact lenses worn after 3 days
# Procedure: A total of 10 adults suffering from contact lens discomfort were included in the study. Among them, 8 felt uncomfortable when wearing contact lenses, and 2 were asymptomatic contact lens wearers. The contact lenses worn by the participants were all silicone hydrogel-based contact lenses. All the participants were in good health. The symptoms and severity of eye discomfort were evaluated by the ocular surface disease index (OSDI), and whether there were symptoms such as inflammation in the eyes was checked by an optometrist.
# as §2
# Stability in water = format: physicochemical
# [5] = Example 3, 0.5% eye drop, 5 μL per eye every day, FIG. 5
SMILES,"corneal injury (fluorescein staining) [1, 5]",IL-17 inflammatory factor on ocular surface (IL-17 [2]),level of IL-17 in tears (IL-17 [3]),TNF-α gene expression in trigeminal nerve (TNF-α),MMP-2 gene expression in trigeminal nerve (MMP-2),MMP-9 gene expression in trigeminal nerve (MMP-9),participants saying that the contact lens discomfort almost disappears [4] [participants],participants thinking that the effect is not significant [4] [case],stability in water (Stability in water),"corneal injury (fluorescein staining) ([1]; Example 4, eye drops, FIG. 9)"
"N=C(N)NCCC[C@H](N)C(=O)O [arginine, reference compound]",can not significantly improve the ocular surface damage,–,–,–,–,–,–,–,–,–
CN1c2c(nc(N)[nH]c2=O)NCC1CNc1ccc(C(=O)N[C@@H](CCC(=O)O)C(=O)O)cc1 (some centres unmarked) [5-methylterahydrofolic acid],can improve the corneal injury with a significant difference from the baseline state,can significantly reduce IL-17 inflammatory factor,can reduce the level of IL-17 in tears,a certain inhibitory effect on TNF-α,can significantly inhibit the MMP-2 gene expression,not on MMP-9 significantly,3,1,–,–
"CN1c2c(nc(N)[nH]c2=O)NC[C@@H]1CNc1ccc(C(=O)N[C@@H](CCC(=O)O)C(=O)O)cc1.N=C(N)NCCC[C@H](N)C(=O)O [arginine 5-methylterahydrofolate, arginine 6S-5-methylterahydrofolate]",–,–,–,–,–,–,–,–,very poor,"can improve the corneal injury, with a significant difference from the baseline state"
